Patent publication US9125898B2, “Acetam derivatives for pain relief” (NEUROTUNE AG, priority 2008, dated 2015)

Test system: chronic constriction injury induced hyperalgesia in the rat
Assay: Chronic constriction injury induced hyperalgesia in the rat (paw-pressure test)
Assay type: in vivo
Settings: for Paw pressure, pre-test before all treatments: baseline, drug 100 mg/kg p.o.; for Paw pressure, 5 day 30 min / Paw pressure, 10 day 30 min / Paw pressure, 14 day 30 min / Paw pressure, 14 day 4 h / Paw pressure, 14 day 8 h / Paw pressure, 15 day 24 h / Paw pressure, 18 day 3 days: 100 mg/kg p.o. once a day for 14 days
Procedure: In the repeated administration protocol, NT-13317 was orally administered at 100 mg/kg in 1% CMC once a day for 14 days starting from the day of sciatic nerve ligation.
Peripheral rat mononeuropathy (Chronic constriction injury): Neuropathy was induced according to the procedure described by Bennett and Xie (Bennett G J, Xie Y K. A peripheral mononeuropathy in rat that produces disorders of pain sensation like those seen in man. Pain 1988; 33: 87-107).
Briefly, rats were anaesthetized with chloral hydrate 400 mg/kg intraperitoneally (i.p.); under aseptic conditions, the right common sciatic nerve was exposed at the level of the middle thigh by blunt dissection. Proximal to the trifurcation, the nerve was carefully freed from the surrounding connective tissue and four chromic cat gut ligatures (4-0, Ethicon, Norderstedt, Germany) were tied loosely around it with about 1 mm spacing. After haemostasis was confirmed, the incision was closed in layers. Then animals were allowed to recover from anaesthesia and surgery and were kept one per cage with free access to water and standard laboratory chow.
Statistical analysis: All experimental results are given as the mean±S.E.M. An analysis of variance, ANOVA, followed by Fisher's protected least significant difference procedure for post hoc comparison, were used to verify significance between two means of behavioural results. Data were analyzed with the StatView software for the Macintosh (1992). P values≦0.05 were considered significant.
Data of mechanical threshold (PWT) were converted to a percentage of the maximal possible effect (% MPE), according to Veneroni, O. et al. as follows: %MPE=(left dose PWT−left pre-dose control PWT)/(left naïve PWT−left pre-dose PWT)*100
The obtained % MPE were employed for ED50 calculation (obtained by Grafit v. 5.0), defined as the dose producing 50% reversal of mechanical allodynia.

NCC1(CC(=O)O)CCCCC1 [GABAPENTIN, Gabapentin, reference compound]
Paw pressure, pre-test before all treatments (CCI group): 62.9 ± 3.3 g | Paw pressure, 5 day 30 min (CCI): 52.4 ± 4.6 g | Paw pressure, 10 day 30 min (CCI): 52.7 ± 5.6 g | Paw pressure, 14 day 30 min (CCI): 56.7 ± 6.2 g | Paw pressure, 14 day 4 h (CCI): 57.1 ± 5.5 g | Paw pressure, 14 day 8 h (CCI): 62.3 ± 6.5 g | Paw pressure, 15 day 24 h (CCI): 59.6 ± 5.7 g | Paw pressure, 18 day 3 days (CCI): 58.2 ± 5.5 g | Paw pressure, pre-test before all treatments (SHAM group): 61.8 ± 2.9 g | Paw pressure, 5 day 30 min (SHAM): 63.2 ± 4.1 g | Paw pressure, 10 day 30 min (SHAM): 69.2 ± 5.1 g | Paw pressure, 14 day 30 min (SHAM): 71.2 ± 6.3 g | Paw pressure, 14 day 4 h (SHAM): 69.2 ± 5.6 g | Paw pressure, 14 day 8 h (SHAM): 70.4 ± 5.9 g | Paw pressure, 15 day 24 h (SHAM): 68.5 ± 5.8 g | Paw pressure, 18 day 3 days (SHAM): 66.4 ± 4.8 g | Effect on paw pressure test after the last administration (in words) (p.o. 100 mg/kg once a day for 14 days from the day of sciatic nerve ligation): still active after 72 hr
